Measured values taken from paper PMC8389655, “Au2phen and Auoxo6, Two Dinuclear Oxo-Bridged Gold(III) Compounds, Induce Apoptotic Signaling in Human Ovarian A2780 Cancer Cells” (Biomedicines, 2021).

Assays:
[1] = tested on: HEK293 (human embryonic kidney) cells; assay: MTT antiproliferative assay on HEK cells; format: cell-based; conditions: for IC50: 72 h of treatment, MTT assay, mean ± SD of three experiments, read-out: Half-maximal inhibitory concentration (IC50), HEK293; for IC50 for HEK higher than for A2780 (fold): ratio of 72 h IC50 HEK / A2780
Experimental: (§1) The inhibition of cell proliferation by Au2phen, Auoxo6, and AuL12 on A2780 cell line was evaluated through MTT (3-(4,5-dimethylthiazol-2-yl)-2,5-diphenyltetrazolium bromide) test. Viable cells can convert MTT into formazan, which is coloured and detectable at 595 nm. Exponentially growing cells were seeded in 96 well-microplates at a density of 8 × 10^3 for 24 h and then gold compounds were added in fresh RPMI medium at concentrations ranging from 0.003 to 100 µM and incubated for 72 h. On the day of the test, cells were treated with 0.5 mg/mL MTT for 1 h at 37 °C. Following precipitation, blue formazan was dissolved in DMSO, and the optical density was read in a microplate reader interfaced with Microplate Manager/PV version 4.0 software (BioRad Laboratories, Hercules, USA). From the absorbance measurements, the half-maximal inhibitory concentration (IC50) value of each compound on A2780 cells was calculated using GraphPad Prism software version 6.0 (Graphpad Holdings, LLC, USA). The same protocol was applied on non-tumor cell lines, i.e., HEK and PNT1 cells.

caspase-9 = assay: FAM-FLICA caspase-9 activation, flow cytometry; format: cell-based, human; conditions: A2780, 72 h at 72 h IC50 dose, compared to controls
Experimental: (§2) In addition, caspase-3, caspase-8, and caspase-9 activation was assessed in treated and untreated cells. Likewise, cells were trypsinized, washed with PBS, and suspended in FAM-FLICATM caspase solution (FAM-DEVD-FMK caspase FLICA kit, ImmunoChemistry Technologies, MN 55431 USA) for 30 min at 37 °C. Cells were then washed twice with PBS and analyzed using a FACSCantoII flow cytometer (BD Biosciences, New Jersey, USA).

[2] = tested on: complex II-driven mitochondrial respiration; assay: Respiratory control ratio, complex II-driven respiration in permeabilized cells; format: cell-based, human; conditions: permeabilized A2780, 24 h treatment; control about 3.0
Experimental: The analysis of the oxygen consumption rate (OCR) was performed using a Clark-type O2 electrode inserted in a thermostated airtight chamber (Oxygraph Plus System, Hansatech Instruments, King’s Lynn, Norfolk, UK). Briefly, control and treated cells (12 and 24 h) were trypsinized, washed with PBS, and suspended in culture medium to measure the steady state OCR for 10 min. The OCR values, expressed as nmol of consumed O2/mL/min, were normalized to the cellular protein content. To evaluate the response of complex I, complex II/III, and ATP-synthase-driven OCRs in the presence or absence of gold-treatment, we used the protocol described by Baracca et al.. Cells were trypsinized, washed, and resuspended in buffer containing sucrose, TRIS-HCl, MgSO4, EDTA, and KH2PO4. Cell suspension was treated with digitonin to allow cell membrane permeabilization. To stimulate complex I, 250 mM glutamate/malate was added, whereas to stimulate complex II, 250 mM succinate was added (state 2 respiration). Then, to induce ATP-synthase-driven mitochondrial respiration, 10 mM ADP was added (state 3 respiration). To estimate the mitochondrial respiratory capacity, defined as the respiratory control ratio (RCR), state 3/state 2 ratios were calculated for control and treated cells.

OXPHOS complex I = assay: Western blot of OXPHOS complex I content; format: cell-based, human; conditions: A2780, 24 h at 72 h IC50 dose, vs controls
Experimental: (§3) After drug treatments, cells were lysed in RIPA buffer supplemented with a cocktail of protease and phosphatase inhibitors. […] To favor the electrophoretic separation, 25% sample loading buffer (SLB) was added to the cell lysates. Here, 20 µg samples of proteins from controls and treated cells were loaded on 4–20% pre-cast SDS-PAGE gels and blotted onto PVDF membranes. Primary antibodies Bcl-2 (1:1000 dilution,#sc-7382, Santa Cruz, Dallas, Texas USA), Bax (1:1000 dilution, #sc-493, Santa Cruz), OXPHOS cocktail (1:1000 dilution, #ab110413, AbCam, Cambridge, UK), citrate synthase (1:1000 dilution, #sc-515640, Santa Cruz), ASK1 (1:1000 dilution, #sc-390275, Santa Cruz), phospho(Thr838)-ASK1 (1:1000 dilution, #CPA6042, Cohesion Biosciences, London, UK), AKT (1:1000 dilution, #sc-5298, Santa Cruz), and phospho(Ser473)-AKT (1:1000 dilution, #GTX128414, GeneTex, Irvine, CA, USA) were added to 2% non-fat dry milk in PBS-tween solution, while PVDF membranes were incubated overnight at 4 °C. Then, membranes were treated with horseradish peroxidase (HRP)-conjugated secondary antibodies (1:5000 dilution, Santa Cruz) and immunoreactive bands were detected with an ECL kit detection system on an Amersham Imager 600 (GE Healthcare, Chicago, IL, USA). For the quantification, a densitometric analysis of the bands was performed using ImageJ2 software version 2.0.0-rc-64 [23]. The intensities of the immunostained bands were normalized on the Coomassie brilliant blue R-250-stained total protein from the same PVDF membrane.

[3] = tested on: A2780 human ovarian cancer cell line; assay: MTT antiproliferative assay on A2780 cells; format: cell-based; conditions: for IC50: 72 h of treatment, MTT assay, mean ± SD of three experiments, read-out: Half-maximal inhibitory concentration (IC50), A2780; for cytotoxic potency on A2780 higher than that of AuL12 (fold): from 72 h IC50 values on A2780
Experimental: as §1
The effects of these 72 h exposure IC50 doses on A2780 cell viability were also evaluated using an MTT time course assay at 12, 24, 48, and 72 h of drug exposure. The experimental protocol described above was applied.

ASK1 = assay: Western blot of phospho(Thr838)-ASK1 and total ASK1; format: cell-based, human; conditions: A2780, 24 h at 72 h IC50 dose, vs controls
Experimental: as §3

[4] = tested on: intracellular ROS in A2780 cells; assay: Intracellular ROS evaluation (H2DCF-DA, flow cytometry); format: cell-based, human; conditions: A2780, 48 h treatment at 72 h IC50 dose, H2DCFDA
Experimental: Within the cell, H2DCF-DA is de-acetylated by cellular esterases to a non-fluorescent compound, which becomes fluorescent once it is oxidized by cellular ROS into 2′,7′-dichlorofluorescein (DCF). Cells were trypsinized, washed, and incubated with 5 µM H2DCFDA for 30 min in the dark. Then, cells were washed again and immediately analyzed using a FACSCantoII (BD Biosciences, New Jersey, USA) flow cytometer.

OXPHOS complex II = assay: Western blot of OXPHOS complex II content; format: cell-based, human; conditions: A2780, 24 h at 72 h IC50 dose, vs controls
Experimental: as §3

caspase-3 = assay: FAM-FLICA caspase-3 activation, flow cytometry; format: cell-based, human; conditions: A2780, 72 h at 72 h IC50 dose, compared to controls
Experimental: as §2

Bax = assay: Western blot of Bax content; format: cell-based, human; conditions: A2780, 48 h at 72 h IC50 dose, compared to controls
Experimental: as §3

Row | Structure (SMILES) | IC50 [1] | IC50 for HEK higher than for A2780 (fold) [1] | cells showing caspase-9 activation (caspase-9) | respiratory control ratio (RCR), complex II-driven [2] | decrease of complex I protein content (OXPHOS complex I) | IC50 [3] | cytotoxic potency on A2780 higher than that of AuL12 (fold) [3] | enhancement of phospho-ASK1 levels (phosphorylated-ASK1/total ASK1 ratio) (ASK1) | ROS increase vs control cells [4] | decrease of complex II protein content (OXPHOS complex II) | caspase-3 activation (fluorescence intensity) (caspase-3) | increase of proapoptotic Bax protein (Bax)
1 | Cc1ccc2ccc3ccc(C)[n+]4c3c2[n+]1[Au-]41[O][Au-]2([O]1)[n+]1c(C)ccc3ccc4ccc(C)[n+]2c4c31.F[P-](F)(F)(F)(F)F.F[P-](F)(F)(F)(F)F [Au2phen, ((2,9-dimethyl-1,10-phenanthroline)2Au2(µ-O)2)(PF6)2] | 4.18 ± 0.05 µM | 5 fold | 60% | about 1.7 | 48% | 0.8 ± 0.02 µM | 5 fold | about 15% | about 3.7 fold | 66% | ~ 40% | about 29%
2 | CCOC(=O)CN(C)C1=[S+][Au-]([Br])([Br])[S]1 [AuL12, dibromo(ethylsarcosinedithiocarbamate)gold(III), reference compound] | 10.7 ± 0.36 µM | 2.7 fold | ~ 30% | about 2.4 | 28% | 4 ± 0.03 µM |  | about 25% | about 2.8 fold | 40% | ~ 40% | ~34%
3 | Cc1cccc2[n+]1[Au-]1([O][Au-]3([O]1)[n+]1c(C)cccc1-c1cccc(C)[n+]13)[n+]1c(C)cccc1-2.F[P-](F)(F)(F)(F)F.F[P-](F)(F)(F)(F)F [Auoxo6, ((6,6′-dimethyl-2,2′-bipyridine)2Au2(µ-O)2)(PF6)2] | 6.16 ± 0.04 µM | 5 fold | 75% | about 1.8 | 50% | 1.14 ± 0.18 µM | 3.5 fold | about 23% | about 2.8 fold | 70% | about 80% | ~20%
